From PubChem BioAssay AID2060330 (Molecular Pharmacology Branch, DTP, NCI, 2025)

Tested on: LG0703-F948-PDC spheroids with HUVEC/MSC, viability
Experiment: Anticancer human tumor LG0703-F948-PDC patient-derived lung adenocarcinoma cell line growth inhibition [IpAb]
Conditions: for IC50: curve of first compound; for viability, T/C: stronger effect = lower value
How it was run: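 Multi-cell spheroids of 60% tumour cells, 25% HUVEC and 15% MSC in ultra-low-attachment U-bottom wells, treated with agents combined with ipatasertib or abemaciclib. Half-log ranges top out near clinical Cmax, or 10 microM when Cmax is unknown.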

[1] = second compound 0.01 µM, first compound 0.0316 µM
[2] = second compound 0.01 µM, first compound 0.1 µM
[3] = second compound 0.01 µM, first compound 0.316 µM
[4] = second compound 0.01 µM, first compound 1 µM
[5] = second compound 0.01 µM, first compound 3.16 µM
[6] = second compound 0.01 µM, first compound 10 µM
[7] = second compound 0.0316 µM, first compound 0.0316 µM
[8] = second compound 0.0316 µM, first compound 0.1 µM
[9] = second compound 0.0316 µM, first compound 0.316 µM
[10] = second compound 0.0316 µM, first compound 1 µM
[11] = second compound 0.0316 µM, first compound 3.16 µM
[12] = second compound 0.0316 µM, first compound 10 µM
[13] = second compound 0.1 µM, first compound 0.0316 µM
[14] = second compound 0.1 µM, first compound 0.1 µM
[15] = second compound 0.1 µM, first compound 0.316 µM
[16] = second compound 0.1 µM, first compound 1 µM
[17] = second compound 0.1 µM, first compound 3.16 µM
[18] = second compound 0.1 µM, first compound 10 µM
[19] = second compound 0.316 µM, first compound 0.0316 µM
[20] = second compound 0.316 µM, first compound 0.1 µM
[21] = second compound 0.316 µM, first compound 0.316 µM
[22] = second compound 0.316 µM, first compound 1 µM
[23] = second compound 0.316 µM, first compound 3.16 µM
[24] = second compound 0.316 µM, first compound 10 µM
[25] = second compound 1 µM, first compound 0.0316 µM
[26] = second compound 1 µM, first compound 0.1 µM
[27] = second compound 1 µM, first compound 0.316 µM
[28] = second compound 1 µM, first compound 1 µM
[29] = second compound 1 µM, first compound 3.16 µM
[30] = second compound 1 µM, first compound 10 µM
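Further: spheroids exposed to compounds for seven days before readout.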
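Wherever viability, T/C is given: T/C percent relative to DMSO vehicle wells set as 100% viability.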

Compound: C=CCn1c(=O)c2cnc(Nc3ccc(N4CCN(C)CC4)cc3)nc2n1-c1cccc(C(C)(C)O)n1 + CCN1CCN(Cc2ccc(Nc3ncc(F)c(-c4cc(F)c5nc(C)n(C(C)C)c5c4)n3)nc2)CC1
- IC50 (second compound 0.01 µM): 1.16 µM
- IC50 (second compound 0.0316 µM): 1.01 µM
- IC50 (second compound 0.1 µM): 0.898 µM
- IC50 (second compound 0.316 µM): 0.862 µM
- IC50 (second compound 1 µM): 0.421 µM
- viability, T/C [1]: 120%
- viability, T/C [2]: 101%
- viability, T/C [3]: 86%
- viability, T/C [4]: 58.9%
- viability, T/C [5]: 17.3%
- viability, T/C [6]: 8.27%
- viability, T/C [7]: 99.6%
- viability, T/C [8]: 94.1%
- viability, T/C [9]: 78.7%
- viability, T/C [10]: 53.2%
- viability, T/C [11]: 16.6%
- viability, T/C [12]: 6.85%
- viability, T/C [13]: 95.8%
- viability, T/C [14]: 76.5%
- viability, T/C [15]: 71.2%
- viability, T/C [16]: 53.5%
- viability, T/C [17]: 16%
- viability, T/C [18]: 4.26%
- viability, T/C [19]: 85.3%
- viability, T/C [20]: 79.6%
- viability, T/C [21]: 69.4%
- viability, T/C [22]: 47.7%
- viability, T/C [23]: 21.4%
- viability, T/C [24]: 7.46%
- viability, T/C [25]: 88.4%
- viability, T/C [26]: 69.8%
- viability, T/C [27]: 51.8%
- viability, T/C [28]: 40.1%
- viability, T/C [29]: 21.8%
- viability, T/C [30]: 3.5%

Compound: CC(C)n1nc(-c2ccc3oc(N)nc3c2)c2c(N)ncnc21 + CCN1CCN(Cc2ccc(Nc3ncc(F)c(-c4cc(F)c5nc(C)n(C(C)C)c5c4)n3)nc2)CC1
- IC50 (second compound 0.01 µM): 0.00438 µM
- IC50 (second compound 0.0316 µM): 0.0033 µM
- IC50 (second compound 0.1 µM): 0.00423 µM
- IC50 (second compound 0.316 µM): 0.00616 µM
- IC50 (second compound 1 µM): 0.00398 µM
- viability, T/C (second compound 0.01 µM, first compound 0.000316 µM): 112%
- viability, T/C (second compound 0.01 µM, first compound 0.001 µM): 78.6%
- viability, T/C (second compound 0.01 µM, first compound 0.00316 µM): 56.5%
- viability, T/C (second compound 0.01 µM, first compound 0.01 µM): 38%
- viability, T/C [1]: 24%
- viability, T/C [2]: 21.4%
- viability, T/C (second compound 0.0316 µM, first compound 0.000316 µM): 87.9%
- viability, T/C (second compound 0.0316 µM, first compound 0.001 µM): 70.1%
- viability, T/C (second compound 0.0316 µM, first compound 0.00316 µM): 52%
- viability, T/C (second compound 0.0316 µM, first compound 0.01 µM): 33.9%
- viability, T/C [7]: 22.3%
- viability, T/C [8]: 21.8%
- viability, T/C (second compound 0.1 µM, first compound 0.000316 µM): 87.4%
- viability, T/C (second compound 0.1 µM, first compound 0.001 µM): 71.2%
- viability, T/C (second compound 0.1 µM, first compound 0.00316 µM): 52.1%
- viability, T/C (second compound 0.1 µM, first compound 0.01 µM): 40.5%
- viability, T/C [13]: 29.3%
- viability, T/C [14]: 22.3%
- viability, T/C (second compound 0.316 µM, first compound 0.000316 µM): 82.5%
- viability, T/C (second compound 0.316 µM, first compound 0.001 µM): 77.1%
- viability, T/C (second compound 0.316 µM, first compound 0.00316 µM): 58.4%
- viability, T/C (second compound 0.316 µM, first compound 0.01 µM): 43%
- viability, T/C [19]: 32%
- viability, T/C [20]: 24.8%
- viability, T/C (second compound 1 µM, first compound 0.000316 µM): 90%
- viability, T/C (second compound 1 µM, first compound 0.001 µM): 65%
- viability, T/C (second compound 1 µM, first compound 0.00316 µM): 48.1%
- viability, T/C (second compound 1 µM, first compound 0.01 µM): 46.6%
- viability, T/C [25]: 44.1%
- viability, T/C [26]: 28.8%

Compound: CC1(C)CCC(CN2CCN(c3ccc(C(=O)NS(=O)(=O)c4ccc(NCC5CCOCC5)c([N+](=O)[O-])c4)c(Oc4cnc5[nH]ccc5c4)c3)CC2)=C(c2ccc(Cl)cc2)C1 + CCN1CCN(Cc2ccc(Nc3ncc(F)c(-c4cc(F)c5nc(C)n(C(C)C)c5c4)n3)nc2)CC1
- IC50 (second compound 0.01 µM): 5.08 µM
- IC50 (second compound 0.0316 µM): 5 µM
- IC50 (second compound 0.1 µM): 4.92 µM
- IC50 (second compound 0.316 µM): 4.12 µM
- IC50 (second compound 1 µM): 1.29 µM
- viability, T/C [1]: 102%
- viability, T/C [2]: 100%
- viability, T/C [3]: 100%
- viability, T/C [4]: 87.2%
- viability, T/C [5]: 77.9%
- viability, T/C [6]: 13.5%
- viability, T/C [7]: 81.8%
- viability, T/C [8]: 102%
- viability, T/C [9]: 84.3%
- viability, T/C [10]: 91%
- viability, T/C [11]: 75.3%
- viability, T/C [12]: 11.4%
- viability, T/C [13]: 92.4%
- viability, T/C [14]: 86.8%
- viability, T/C [15]: 72.3%
- viability, T/C [16]: 88.5%
- viability, T/C [17]: 73.8%
- viability, T/C [18]: 11.3%
- viability, T/C [19]: 87.9%
- viability, T/C [20]: 88.8%
- viability, T/C [21]: 79.9%
- viability, T/C [22]: 79%
- viability, T/C [23]: 62.6%
- viability, T/C [24]: 11.1%
- viability, T/C [25]: 85%
- viability, T/C [26]: 79%
- viability, T/C [27]: 46.9%
- viability, T/C [28]: 65.8%
- viability, T/C [29]: 36.9%
- viability, T/C [30]: 2.51%

Compound: CCCS(=O)(=O)Nc1ccc(F)c(C(=O)c2c[nH]c3ncc(-c4ccc(Cl)cc4)cc23)c1F + CCN1CCN(Cc2ccc(Nc3ncc(F)c(-c4cc(F)c5nc(C)n(C(C)C)c5c4)n3)nc2)CC1
- IC50 (second compound 0.01 µM): > 10 µM
- IC50 (second compound 0.0316 µM): > 10 µM
- IC50 (second compound 0.1 µM): > 10 µM
- IC50 (second compound 0.316 µM): > 10 µM
- IC50 (second compound 1 µM): > 10 µM
- viability, T/C [1]: 112%
- viability, T/C [2]: 115%
- viability, T/C [3]: 101%
- viability, T/C [4]: 99.1%
- viability, T/C [5]: 100%
- viability, T/C [6]: 59.5%
- viability, T/C [7]: 94.5%
- viability, T/C [8]: 86.9%
- viability, T/C [9]: 95.1%
- viability, T/C [10]: 89.5%
- viability, T/C [11]: 90.9%
- viability, T/C [12]: 67.2%
- viability, T/C [13]: 91%
- viability, T/C [14]: 81.6%
- viability, T/C [15]: 91.7%
- viability, T/C [16]: 90.9%
- viability, T/C [17]: 87.2%
- viability, T/C [18]: 59.1%
- viability, T/C [19]: 89%
- viability, T/C [20]: 97.3%
- viability, T/C [21]: 76.6%
- viability, T/C [22]: 88.1%
- viability, T/C [23]: 79%
- viability, T/C [24]: 51.5%
- viability, T/C [25]: 90.6%
- viability, T/C [26]: 68.2%
- viability, T/C [27]: 52.5%
- viability, T/C [28]: 80%
- viability, T/C [29]: 75.6%
- viability, T/C [30]: 44.8%

Compound: Cn1cnc2c(F)c(Nc3ccc(Br)cc3Cl)c(C(=O)NOCCO)cc21 + CCN1CCN(Cc2ccc(Nc3ncc(F)c(-c4cc(F)c5nc(C)n(C(C)C)c5c4)n3)nc2)CC1
- IC50 (second compound 0.01 µM): 0.27 µM
- IC50 (second compound 0.0316 µM): 0.132 µM
- IC50 (second compound 0.1 µM): 0.0541 µM
- IC50 (second compound 0.316 µM): 0.288 µM
- IC50 (second compound 1 µM): 0.0416 µM
- viability, T/C (second compound 0.01 µM, first compound 0.00949 µM): 83%
- viability, T/C (second compound 0.01 µM, first compound 0.03 µM): 74.6%
- viability, T/C (second compound 0.01 µM, first compound 0.0949 µM): 55.4%
- viability, T/C (second compound 0.01 µM, first compound 0.3 µM): 52.6%
- viability, T/C (second compound 0.01 µM, first compound 0.949 µM): 46.7%
- viability, T/C (second compound 0.01 µM, first compound 3 µM): 45%
- viability, T/C (second compound 0.0316 µM, first compound 0.00949 µM): 80.4%
- viability, T/C (second compound 0.0316 µM, first compound 0.03 µM): 61.5%
- viability, T/C (second compound 0.0316 µM, first compound 0.0949 µM): 51.9%
- viability, T/C (second compound 0.0316 µM, first compound 0.3 µM): 46.2%
- viability, T/C (second compound 0.0316 µM, first compound 0.949 µM): 46.1%
- viability, T/C (second compound 0.0316 µM, first compound 3 µM): 39.8%
- viability, T/C (second compound 0.1 µM, first compound 0.00949 µM): 68.8%
- viability, T/C (second compound 0.1 µM, first compound 0.03 µM): 54.5%
- viability, T/C (second compound 0.1 µM, first compound 0.0949 µM): 43.9%
- viability, T/C (second compound 0.1 µM, first compound 0.3 µM): 44.1%
- viability, T/C (second compound 0.1 µM, first compound 0.949 µM): 45.2%
- viability, T/C (second compound 0.1 µM, first compound 3 µM): 37%
- viability, T/C (second compound 0.316 µM, first compound 0.00949 µM): 72.7%
- viability, T/C (second compound 0.316 µM, first compound 0.03 µM): 64.9%
- viability, T/C (second compound 0.316 µM, first compound 0.0949 µM): 48%
- viability, T/C (second compound 0.316 µM, first compound 0.3 µM): 54.4%
- viability, T/C (second compound 0.316 µM, first compound 0.949 µM): 48.8%
- viability, T/C (second compound 0.316 µM, first compound 3 µM): 41.7%
- viability, T/C (second compound 1 µM, first compound 0.00949 µM): 70.1%
- viability, T/C (second compound 1 µM, first compound 0.03 µM): 53.6%
- viability, T/C (second compound 1 µM, first compound 0.0949 µM): 38.4%
- viability, T/C (second compound 1 µM, first compound 0.3 µM): 44%
- viability, T/C (second compound 1 µM, first compound 0.949 µM): 39.2%
- viability, T/C (second compound 1 µM, first compound 3 µM): 41.5%
